These results are taken from US9085541B2, “Process for producing imine compounds for combating invertebrate pests” (priority 2010, dated 2015).

By mortality is commonly meant the share of the test organisms that died.

The experiment has as its system tobacco budworm (Heliothis virescens). Briefly: Tobacco budworm (Heliothis virescens) I: 96-well microtiter plates with insect diet and eggs, egg and larval mortality. It is filed as in vivo. The conditions noted are these: 120 h, read-out: mortality (egg and larval mortality, visually assessed). As for the experimental part:
B.1 Tobacco Budworm (Heliothis virescens) I
For evaluating control of tobacco budworm (Heliothis virescens) the test unit consisted of 96-well-microtiter plates containing an insect diet and 15-25 H. virescens eggs. The compounds were formulated using a solution containing 75% v/v water and 25% v/v DMSO. Different concentrations of formulated compounds were sprayed onto the insect diet at 10 μl, using a custom built micro atomizer, at two replications. After application, microtiter plates are incubated at about 28±1° C. and about 80±5% relative humidity for 5 days. Egg and larval mortality is then visually assessed.

Turning to `Cc1cc(C2=NOC(c3cc(Cl)cc(Cl)c3)(C(F)(F)F)C2)ccc1C=NNC(=O)NCC(F)(F)F` (centres unmarked) [Compound 1-1, 4-[5-(3,5-dichloro-phenyl)-5-trifluoromethyl-4,5-dihydro-isoxazol-3-yl]-2-methyl-benzaldehyde-4-trifluoroethylsemicarbazone], the mortality at 2500 ppm is at least 75%.
In the case of `CC(=NNC(=O)NCC(F)(F)F)c1ccc(C2=NOC(c3cc(Cl)cc(Cl)c3)(C(F)(F)F)C2)cc1C` (centres unmarked) [Compound 1-19, 1-{4-[5-(3,5-dichloro-phenyl)-5-trifluoromethyl-4,5-dihydro-isoxazol-3-yl]-2-methyl-phenyl}-ethanone-4-trifluoroethylsemicarbazone], the mortality at 2500 ppm was at least 75%.
